Patent US9695155B2, “Herbicidal substituted pyrimidinyloxy benzene compounds” (E. I. DU PONT DE NEMOURS AND COMPANY, priority 2013, dated 2017)

Columns and labels:
[1] = test system: giant foxtail; assay: Test C postemergence; format: in vivo, Setaria faberii; conditions: Setaria faberi, post-emergence
How it was run: (§1)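 Seeds are planted in blended loam soil and sand and treated preemergence, while seedlings in a peat moss/vermiculite medium receive postemergence sprays at 2 to 18 cm height. All plants stay in the greenhouse for 13 to 15 days before visual comparison with controls on a 0–100 scale.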

[2] = test system: corn; assay: Test C postemergence; format: in vivo, Zea mays; conditions: Zea mays, post-emergence
How it was run: as §1

[3] = test system: barnyardgrass; assay: Test C postemergence; format: in vivo, Echinochloa crus-galli; conditions: Echinochloa crus-galli, post-emergence
How it was run: as §1

[4] = test system: wheat, winter; assay: Test C postemergence; format: in vivo, Triticum aestivum; conditions: Triticum aestivum, post-emergence
How it was run: as §1

[5] = test system: lambsquarters; assay: Test C preemergence; format: in vivo, Chenopodium album; conditions: Chenopodium album, pre-emergence
How it was run: as §1

[6] = test system: corn; assay: Test C preemergence; format: in vivo, Zea mays; conditions: Zea mays, pre-emergence
How it was run: as §1

[7] = test system: blackgrass; assay: Test C postemergence; format: in vivo, Alopecurus myosuroides; conditions: Alopecurus myosuroides, post-emergence
How it was run: as §1

[8] = test system: yellow nutsedge; assay: Test C postemergence; format: in vivo, Cyperus esculentus; conditions: Cyperus, post-emergence
How it was run: as §1

[9] = test system: large (Lg) crabgrass; assay: Test C preemergence; format: in vivo, Digitaria sanguinalis; conditions: Digitaria sanguinalis, pre-emergence
How it was run: as §1

[10] = test system: corn; assay: Test A postemergence; format: in vivo, Zea mays; conditions: Zea mays, post-emergence, 240 h
How it was run: (§2)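 Visual 0–100 rating (100 = complete control) taken about 10 d post-treatment relative to untreated checks. Preemergence: directed soil spray on sown loam/sand pots. Postemergence: seedlings 2–10 cm, 1–2 leaf. Non-phytotoxic solvent formulation with surfactant.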

[11] = test system: kochia; assay: Test C postemergence; format: in vivo, Kochia scoparia; conditions: Bassia scoparia, post-emergence
How it was run: as §1

[12] = test system: giant foxtail; assay: Test A postemergence; format: in vivo, Setaria faberii; conditions: Setaria faberi, post-emergence, 240 h
How it was run: as §2

[13] = test system: pigweed; assay: Test C preemergence; format: in vivo, Amaranthus retroflexus; conditions: Amaranthus retroflexus, pre-emergence
How it was run: as §1

SMILES: N#Cc1cccc(Oc2ncc(Cl)cn2)c1-n1cc(C(F)(F)F)cn1 [Compound 58, 3-[(5-chloro-2-pyrimidinyl)oxy]-2-[4-(trifluoromethyl)-1H-pyrazol-1-yl]benzonitrile]
- pest or weed control at 125 g/ha ([1]; 125 g ai/ha, postemergence, read-out: Plant response rating (0 to 100), Foxtail, Giant): 80%
- pest or weed control at 250 g/ha ([1]; 250 g ai/ha, postemergence, read-out: Plant response rating (0 to 100), Foxtail, Giant): 95%
- pest or weed control at 31 g/ha ([1]; Postemergence, 31 g ai/ha, scale 0 to 100 (0 no effect, 100 complete control), 13 to 15 days, read-out: Plant response rating, Foxtail, Giant): 15%
- pest or weed control at 62 g/ha ([1]; Postemergence, 62 g ai/ha, scale 0 to 100 (0 no effect, 100 complete control), read-out: Plant response rating, Foxtail, Giant): 40%
- plant injury at 125 g/ha ([2]; 125 g ai/ha, postemergence, read-out: Plant response rating (0 to 100), Corn): 25%
- plant injury at 250 g/ha ([2]; 250 g ai/ha, postemergence, read-out: Plant response rating (0 to 100), Corn): 45%
- Corn plant response rating (crop injury, 0 = no effect, 100 = complete kill) at 31 g/ha ([2]; Postemergence, 31 g ai/ha, scale 0 to 100 (0 no effect, 100 complete control), 13 to 15 days): 10%
- Corn plant response rating (crop injury, 0 = no effect, 100 = complete kill) at 62 g/ha ([2]; Postemergence, 62 g ai/ha, scale 0 to 100 (0 no effect, 100 complete control)): 15%
- pest or weed control at 125 g/ha ([3]; 125 g ai/ha, postemergence, read-out: Plant response rating (0 to 100), Barnyardgrass): 15%
- pest or weed control at 250 g/ha ([3]; 250 g ai/ha, postemergence, read-out: Plant response rating (0 to 100), Barnyardgrass): 75%
- pest or weed control at 31 g/ha ([3]; Postemergence, 31 g ai/ha, scale 0 to 100 (0 no effect, 100 complete control), 13 to 15 days, read-out: Plant response rating, Barnyardgrass): 5%
- pest or weed control at 62 g/ha ([3]; Postemergence, 62 g ai/ha, scale 0 to 100 (0 no effect, 100 complete control), read-out: Plant response rating, Barnyardgrass): 5%
- plant injury at 125 g/ha ([4]; 125 g ai/ha, postemergence, read-out: Plant response rating (0 to 100), Wheat): 25%
- plant injury at 250 g/ha ([4]; 250 g ai/ha, postemergence, read-out: Plant response rating (0 to 100), Wheat): 30%
- plant injury at 31 g/ha ([4]; Postemergence, 31 g ai/ha, scale 0 to 100 (0 no effect, 100 complete control), 13 to 15 days, read-out: Plant response rating, Wheat): 10%
- plant injury at 62 g/ha ([4]; Postemergence, 62 g ai/ha, scale 0 to 100 (0 no effect, 100 complete control), read-out: Plant response rating, Wheat): 15%
- pest or weed control at 62 g/ha ([5]; 62 g ai/ha, preemergence, scale 0 (no effect) to 100 (complete control), read-out: Lambsquarters plant response rating): 100%
- pest or weed control at 125 g/ha ([5]; 125 g ai/ha, preemergence, scale 0 (no effect) to 100 (complete control), read-out: Lambsquarters plant response rating): 100%
- pest or weed control at 250 g/ha ([5]; 250 g ai/ha, preemergence, scale 0 (no effect) to 100 (complete control), read-out: Lambsquarters plant response rating): 100%
- pest or weed control at 31 g/ha ([5]; Preemergence, 31 g ai/ha, scale 0 to 100, 0 no effect, 100 complete control, read-out: Plant response rating, Lambsquarters): 100%
- plant injury at 62 g/ha ([6]; 62 g ai/ha, preemergence, scale 0 (no effect) to 100 (complete control), read-out: Corn plant response rating): 90%
- plant injury at 125 g/ha ([6]; 125 g ai/ha, preemergence, scale 0 (no effect) to 100 (complete control), read-out: Corn plant response rating): 98%
- plant injury at 250 g/ha ([6]; 250 g ai/ha, preemergence, scale 0 (no effect) to 100 (complete control), read-out: Corn plant response rating): 98%
- Corn plant response rating (crop injury, 0 = no effect, 100 = complete kill) at 31 g/ha ([6]; Preemergence, 31 g ai/ha, scale 0 to 100, 0 no effect, 100 complete control): 60%
- pest or weed control at 125 g/ha ([7]; 125 g ai/ha, postemergence, read-out: Plant response rating (0 to 100), Blackgrass): 30%
- pest or weed control at 250 g/ha ([7]; 250 g ai/ha, postemergence, read-out: Plant response rating (0 to 100), Blackgrass): 55%
- pest or weed control at 31 g/ha ([7]; Postemergence, 31 g ai/ha, scale 0 to 100 (0 no effect, 100 complete control), 13 to 15 days, read-out: Plant response rating, Blackgrass): 10%
- pest or weed control at 62 g/ha ([7]; Postemergence, 62 g ai/ha, scale 0 to 100 (0 no effect, 100 complete control), read-out: Plant response rating, Blackgrass): 15%
- pest or weed control at 125 g/ha ([8]; 125 g ai/ha, postemergence, read-out: Plant response rating (0 to 100), Nutsedge, Yellow): 15%
- pest or weed control at 250 g/ha ([8]; 250 g ai/ha, postemergence, read-out: Plant response rating (0 to 100), Nutsedge, Yellow): 15%
- pest or weed control at 31 g/ha ([8]; Postemergence, 31 g ai/ha, scale 0 to 100 (0 no effect, 100 complete control), 13 to 15 days, read-out: Plant response rating, Nutsedge, Yellow): 5%
- pest or weed control at 62 g/ha ([8]; Postemergence, 62 g ai/ha, scale 0 to 100 (0 no effect, 100 complete control), read-out: Plant response rating, Nutsedge, Yellow): 5%
- pest or weed control at 62 g/ha ([9]; 62 g ai/ha, preemergence, scale 0 (no effect) to 100 (complete control), read-out: Crabgrass, Large plant response rating): 100%
- pest or weed control at 125 g/ha ([9]; 125 g ai/ha, preemergence, scale 0 (no effect) to 100 (complete control), read-out: Crabgrass, Large plant response rating): 100%
- pest or weed control at 250 g/ha ([9]; 250 g ai/ha, preemergence, scale 0 (no effect) to 100 (complete control), read-out: Crabgrass, Large plant response rating): 100%
- pest or weed control at 31 g/ha ([9]; Preemergence, 31 g ai/ha, scale 0 to 100, 0 no effect, 100 complete control, read-out: Plant response rating, Crabgrass, Large): 100%
- Corn plant response rating (crop injury, 0 = no effect, 100 = complete kill) at 125 g/ha ([10]; 125 g ai/ha, 0 to 100 scale where 0 is no effect and 100 is complete control): 100%
- plant injury at 500 g/ha ([10]; 500 g ai/ha, 0 to 100 scale, 0 no effect, 100 complete control, read-out: Plant response rating Corn): 100%
- pest or weed control at 125 g/ha ([11]; 125 g ai/ha, postemergence, read-out: Plant response rating (0 to 100), Kochia): 100%
- pest or weed control at 250 g/ha ([11]; 250 g ai/ha, postemergence, read-out: Plant response rating (0 to 100), Kochia): 100%
- pest or weed control at 31 g/ha ([11]; Postemergence, 31 g ai/ha, scale 0 to 100 (0 no effect, 100 complete control), 13 to 15 days, read-out: Plant response rating, Kochia): 95%
- pest or weed control at 62 g/ha ([11]; Postemergence, 62 g ai/ha, scale 0 to 100 (0 no effect, 100 complete control), read-out: Plant response rating, Kochia): 95%
- pest or weed control at 125 g/ha ([12]; 125 g ai/ha, 0 to 100 scale where 0 is no effect and 100 is complete control, read-out: Plant response rating, Foxtail, Giant): 100%
- pest or weed control at 500 g/ha ([12]; 500 g ai/ha, 0 to 100 scale, 0 no effect, 100 complete control, read-out: Plant response rating Foxtail, Giant): 100%
- pest or weed control at 62 g/ha ([13]; 62 g ai/ha, preemergence, scale 0 (no effect) to 100 (complete control), read-out: Pigweed plant response rating): 100%
- pest or weed control at 125 g/ha ([13]; 125 g ai/ha, preemergence, scale 0 (no effect) to 100 (complete control), read-out: Pigweed plant response rating): 100%
- pest or weed control at 250 g/ha ([13]; 250 g ai/ha, preemergence, scale 0 (no effect) to 100 (complete control), read-out: Pigweed plant response rating): 100%
- pest or weed control at 31 g/ha ([13]; Preemergence, 31 g ai/ha, scale 0 to 100, 0 no effect, 100 complete control, read-out: Plant response rating, Pigweed): 100%
